Patent US20260199485A1, “RNA DEGRADERS AND USES THEREOF” (Arrakis Therapeutics, Inc., priority 2022, published 2026)
{DBCO-TEG} = DBCO-TEG group for click conjugation of the bait; l = locked nucleic acid (LNA); d = 2'-deoxy (DNA)

Tests used:
[1] = system: Renilla STAT3 3′UTR reporter; experiment: Cellular dual luciferase reporter assay (Renilla STAT3 3′UTR reporter, tagged CNOT7) in H1299 cells; type: cell-based; conditions: 10 nM, 30 nM, 100 nM ASO-bait, 24 hours, with CNOT7, relative to non-targeting ASO-bait
Text: Reporter constructs for cellular assays are depicted in FIG. 12. A luciferase reporter construct was designed to the 3′ UTR of STAT3 fused to Renilla luciferase, which contains the PEST and CP1 destabilizing domains. A second luciferase reporter construct was designed using the 3′UTR of HBB fused to Firefly luciferase, which contains the PEST and CP1 destabilizing domains. The reporter design for both constructs was previously described in Luo E C, et al. Nat Struct Mol Biol. 2020; 27(10):989-1000.
An antisense oligo was conjugated to the bait molecule AP1867, which binds FKPB12 via click-chemistry to generate a heterobifunctional molecule (ASO-bait). The bait molecule was chemically modified to contain an azide to allow for click chemistry. […]
A model system to interrogate the ability of a bifunctional RNA binder—CNOT7 binder is depicted in FIG. 13. A parallel approach utilizing a luciferase readout together with mRNA expression analysis was employed to assess the bifunctional molecule's capability to recruit CNOT7 to target mRNA and mediate mRNA degradation. […] A parallel plate was assessed for cell viability using CellTiter Glo (Promega). Data was analyzed by normalizing reporter signal relative to normalizer signal, and this ratio was then normalized to GFP. […]

STAT3 mRNA = experiment: Endogenous STAT3 mRNA expression assay (ddPCR) in H1299 cells expressing tagged CNOT7; type: cell-based; conditions: 200 nM ASO-bait, 24 hours, with CNOT7, relative to non-targeting ASO-bait and GFP control
Procedure: For the endogenous mRNA expression assay, H1299 cells were seeded in a 12-well plate the day before transfection. On the following day, the cells were transfected with the plasmid expressing tagged CNOT7 and incubated for 24 hours. The following day, cells were transfected with 200 nM of the targeting or non-targeting ASO-bait molecules and incubated for 24 hours. In addition, cells were also transfected with a known STAT3 silencing ASO as a positive control for STAT3 mRNA knockdown. Samples were directly lysed in-well for RNA purification using the Promega Maxwell Automated RNA Extractor, followed by single-strand cDNA synthesis. The resulting cDNA was serially diluted at 1:100, which was used in the ddPCR reaction with primers designed to STAT3 and housekeeping genes (CLTC and TBP), the sequences of which are shown below. Data were analyzed by normalizing STAT3 relative to the geomean of TBP and CLTC. All transfections were performed using Lipofectamine 3000 (Invitrogen). […] Thus, the bifunctional molecule is capable of accelerating the degradation of endogenously expressed RNA.

CNOT7 [2] = target: T1, CNOT7 (Homo sapiens, UniProt Q9UIV1); experiment: Binding of compounds to CNOT7 by surface plasmon resonance (SPR); conditions: Table 4; dissociation constant for CNOT7
T1 construct: biotin (biotinylated); purchased Ichor Life Sciences
Method in brief: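 Biotinylated CNOT7 captured on a streptavidin chip (~7,500 RU); compounds injected at several concentrations (120 s association, 120 s dissociation, 30 ul/min) in 20 mM HEPES pH7.5, 100 mM KCl, 3 mM MgCl2, 1 mM TCEP, 0.05% tween-20, 2% DMSO. Reference- and solvent-corrected sensograms fit to a 1:1 steady-state affinity model.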

CNOT7 [3] = target: T1, CNOT7; experiment: AMP competition assay by SPR (active site vs other site of CNOT7); type: binding; conditions: combination with AMP, increasing concentrations
Procedure: In order to evaluate if the compounds bound to the active site of CNOT7, an AMP competition experiment was performed. FIG. 5 provides a schematic of a surface plasmon resonance (SPR) experiment to interrogate if a CNOT7 binding compound binds in the active site of CNOT7. Briefly, AMP, which is a known binder to the active site, was interrogated at increasing concentrations for binding to CNOT7. As a next step, a CNOT7 binding compound was interrogated at increasing concentrations for binding to CNOT7. As a final step a combination of AMP and CNOT7 binding compound was interrogated by SPR at increasing concentrations for binding to CNOT7. If the signals were additive, AMP and the CNOT7 compounds bind to independent sites on CNOT7. […] In contrast, if the signals are not additive, this would indicate that AMP and CNOT7 […] for the same site. […] As a control, literature compounds that are active site binders, compounds A, B and C, are not additive when combined with AMP.

[4] = target: T2, CNOT7-FKBP12(F36V) fusion protein (Homo sapiens, UniProt Q9UIV1); experiment: Biochemical gel assay: degradation/deadenylation of RNA substrate with immunoprecipitated CNOT7-FKBP12(F36V); conditions: compound added to the CNOT7 and RNA mixture (FIG. 11)
T2 construct: expressed in transfected cells; host or cells: H1299 cells; anti-HA immunoprecipitation, HA-peptide elution
Text: Biochemical reporter systems were generated to evaluate the ability of CNOT7 binding compounds to accelerate the degradation of RNA by CNOT7. […] Generation of the target RNA was described in the previous experiment. […] The bifunctional molecules consist of Compound 1-4 and the following rSM:
which binds to the RNA sequence of AST-X, or the rSM linked to a tag that binds CNOT7-FKBPV. Specifically, the tag is compound AP1867 (CAS NO.: 195514-23-9), a known binder of FKBPV, resulting in the rSM-AP1867tag. The CNOT7-FKBPV is obtained by immunoprecipitation of cell engineered to express CNOT-FKBPV. Specifically, H1299 cells were transfected with plasmid expressing HA-tagged CNOT7-FKBP12(F36V) fusion protein. After 24 hours, cells were pelleted and lysed in the following lysis buffer: 20 mM HEPES pH 7.3, 0.2 mM EGTA, 10% glycerol, 0.1 mM DTT with cOmplete EDTA-free protease inhibitors (Millipore). After freeze-thawing, NaCl was added to a concentration of 400 mM and lysates were pelleted to clear cellular debris. Cleared lysate was adjusted to buffer conditions containing 0.1% NP-40 and 150 mM NaCl before being applied to Pierce Anti-HA magnetic beads (ThermoFisher) at 4° C. for 2-20 hours with end-over-end rotation. After washing, bound protein was competitively eluted with 2 mg/mL HA peptide (ThermoFisher) in activity assay buffer at 4° C. for 2-20 hours. It should be appreciated that this immunoprecipitation protocol will result in tagged CNOT7 that will likely have other components of the CCR4-NOT complex bound as well.
The reactions were incubated at 37° C., with specified timepoints removed from the reaction and combined with 2× formamide RNA loading buffer with 10 mM EDTA before boiling for 3 minutes to quench the reaction. Samples were run on a pre-warmed 15% TBE-Urea polyacrylamide gel at 180V for 90 minutes and then imaged using Cy2 settings on the Azure Biosystems 600 Imaging System. […] It should be noted that the CCR4-NOT complex includes proteins other than CNOT7, for instance CNOT6, that have deadenylation and/or exonuclease activity.
These findings were confirmed in the biochemical assay described above. […] In contrast, literature compounds that are active site binders, compounds A, B and C, structure depicted on the right-hand side, do interfere with the ability of CNOT7 to degrade RNA (See center panel of gel).
Heterobifunctional molecules were generated by conjugating the rSM depicted above, which binds RNA with an AST-X sequence, to AP1867 (a small molecule binder of FKBP12(F36V)), resulting in rSM-AP1867tag. In addition, I-243 was conjugated to the rSM resulting in compounds 1-329 and I-371, depicted in FIG. 17. Fluorescently labeled RNA substrates were refolded in the presence of Mg^2+ and incubated 10, 25, or 50 μM doses of heterobifunctional molecules for 30 minutes at room temperature before the enzymatic reaction was initiated with the elution fraction (containing CNOT7-FKBP12(F36V) fusion protein) from the immunoprecipitation protocol above. The reactions were incubated at 37° C., with specified timepoints removed from the reaction and combined with 2× formamide RNA loading buffer with 10 mM EDTA before boiling for 3 minutes to quench the reaction. Samples were run on a pre-warmed 15% TBE-Urea polyacrylamide gel at 180V for 120 minutes and then imaged using Cy2 settings on the Azure Biosystems 600 Imaging System (See FIGS. 18, 19A and 19B). In addition, for 1-371 and the control rSM-AP1867tag, the disappearance of the full-length substrate band was quantified using ImageJ and plotted over time (FIG. 19B).

T1 sequence (Q9UIV1 whole entry): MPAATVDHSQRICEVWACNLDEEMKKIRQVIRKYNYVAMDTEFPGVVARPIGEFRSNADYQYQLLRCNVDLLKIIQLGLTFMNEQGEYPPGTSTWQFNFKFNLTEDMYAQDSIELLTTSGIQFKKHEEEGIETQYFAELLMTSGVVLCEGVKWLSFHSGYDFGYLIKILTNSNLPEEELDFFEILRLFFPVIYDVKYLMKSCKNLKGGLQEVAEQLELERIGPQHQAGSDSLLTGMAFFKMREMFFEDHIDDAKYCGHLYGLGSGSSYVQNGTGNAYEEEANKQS
T2 sequence (Q9UIV1 with tags, fused parts or gaps): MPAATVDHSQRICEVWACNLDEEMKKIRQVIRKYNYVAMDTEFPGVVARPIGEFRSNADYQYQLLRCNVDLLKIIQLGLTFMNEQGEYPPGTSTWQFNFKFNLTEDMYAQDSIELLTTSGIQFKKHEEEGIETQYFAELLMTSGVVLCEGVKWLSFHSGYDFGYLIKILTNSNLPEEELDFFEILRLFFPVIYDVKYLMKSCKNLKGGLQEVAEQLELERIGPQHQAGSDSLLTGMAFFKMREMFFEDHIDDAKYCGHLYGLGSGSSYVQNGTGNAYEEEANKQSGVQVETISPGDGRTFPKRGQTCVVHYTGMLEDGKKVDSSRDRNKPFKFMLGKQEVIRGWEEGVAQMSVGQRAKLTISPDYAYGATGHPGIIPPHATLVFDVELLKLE

| Compound | reporter signal (Renilla STAT3 3′UTR normalized to Firefly HBB and GFP) [1] | STAT3 expression (mRNA, ddPCR, normalized to TBP and CLTC) (STAT3 mRNA) | Kd (CNOT7 [2]) | SPR signal additive to AMP (additive = binds CNOT7 at a location other than the active site) (CNOT7 [3]) | interference with the ability of CNOT7 to degrade RNA [4] |
| --- | --- | --- | --- | --- | --- |
| targeting ASO-bait: "An antisense oligo was conjugated to the bait molecule AP1867"; oligonucleotide binds "a sequence in the 3′UTR of STAT3" (SEQ ID NO:3) (antisense GAAGTACACATTGG; sugars from the 5' end dldldldldldldl, all phosphorothioate, 5' {DBCO-TEG}, methylation of C not given here; Bait AP1867 attached by click chemistry to the 5' DBCO-TEG) | reduction in reporter signal | reduction in STAT3 expression |  |  |  |
| COc1ccc(CNC(=O)CSc2nc(=O)[nH]cc2C)cc1 [Compound I-4] |  |  | 1 to 25 µM | additive to AMP | did not interfere |
| Cc1c[nH]c(=O)nc1SCC(=O)NCc1ccc2c(c1)OCO2 [Compound I-1] |  |  | 1 to 25 µM | additive to AMP | did not interfere |
